The record followed here is patent US20240000075A1, “FUNGICIDAL ARYL AMIDINES” (CORTEVA AGRISCIENCE LLC, priority 2020, published 2024).

One test deals with Zymoseptoria tritici. Kind of test: Septoria leaf blotch of wheat, whole-plant fungicidal activity (SEPTTR). Type of test: in vivo, Zymoseptoria tritici on wheat plants (variety 'Yuma'). Conditions: read-out: % Disease Control Rating SEPTTR. Here is the method: Example A: Evaluation of Fungicidal Activity: Septoria Leaf Blotch of Wheat (Zymoseptoria tritici; Bayer Code […]) Technical grades of materials were dissolved in acetone, which were then mixed with nine volumes of water (H2O) containing 110 ppm Triton X-100. The fungicide solutions were applied onto wheat seedlings using an automated booth sprayer to run-off. All sprayed plants were allowed to air dry prior to further handling. All fungicides were evaluated using the aforementioned method for their activity vs. all target diseases, unless stated otherwise. Wheat plants (variety 'Yuma') were grown from seed in a greenhouse in soil-less potting mix until the first leaf was fully emerged, with 7-10 seedlings per pot. These plants were inoculated with an aqueous spore suspension of Zymoseptoria tritici either 3 days prior to fungicide treatment (3 day curative; 3DC) or 1 day after fungicide treatment (1 day protectant; 1DP). After inoculation the plants were kept in 100% relative humidity for three days to permit spores to germinate and infect the leaf. The plants were then transferred to a greenhouse for disease to develop. When disease symptoms were fully expressed on the 1st leaves of untreated plants, infection levels were assessed on a scale of 0 to 100 percent disease severity. Percent disease control was calculated using the ratio of disease severity on treated plants relative to untreated plants.

A further test deals with Phakopsora pachyrhizi. Kind of test: Asian soybean rust, whole-plant fungicidal activity (PHAKPA). Format: in vivo. Conditions: read-out: % Disease Control Rating PHAKPA. Here is the method:
Example C: Evaluation of Fungicidal Activity: Asian Soybean Rust (Phakopsora pachyrhizi; Bayer Code […]) Technical grades of materials were dissolved in acetone, which were then mixed with nine volumes of H2O containing 0.011% Tween-20. The fungicide solutions were applied onto soybean seedlings using an automated booth sprayer to run-off. All sprayed plants were allowed to air dry prior to further handling. Soybean plants (variety 'Williams 82') were grown in soil-less potting mix, with one plant per pot. Ten-day-old seedlings were used for testing. Plants were inoculated as described in Example A. Plants were incubated for 24 h in a dark dew room with 100% relative humidity then transferred to a growth room for disease to develop. Fungicide formulation and application were made as described in Example A. When disease symptoms were fully expressed, disease severity was assessed on the sprayed leaves on a scale of 0 to 100 percent. Percent disease control was calculated using the ratio of disease severity on treated plants relative to untreated plants.

Another test relates to Rhynchosporium commune. Kind of test: Leaf blotch of barley, whole-plant fungicidal activity (RHYNSE). Type of test: in vivo. The note with it: 24 h, 1DP (1 day protectant), read-out: % Disease Control Rating RHYNSE. Here is the method: Technical grades of materials were dissolved in acetone, which were then mixed with nine volumes of water (H2O) containing 110 ppm Triton X-100. The fungicide solutions were applied onto wheat seedlings using an automated booth sprayer to run-off. All sprayed plants were allowed to air dry prior to further handling. All fungicides were evaluated using the aforementioned method for their activity vs. all target diseases, unless stated otherwise. Example D: Evaluation of Fungicidal Activity: Leaf Blotch of Barley (Rhynchosporium commune; Bayer Code […]) Barley plants (variety 'Harrington') were grown from seed in a greenhouse in soil-less potting mix until the first leaf was fully emerged, with 7-10 seedlings per pot. These plants were inoculated with an aqueous spore suspension of Rhynchosporium commune after fungicide treatments. After inoculation, the plants were kept in a dark dew room with 100% relative humidity for two days to permit spores to germinate and infect the leaf. The plants were then transferred to a greenhouse for disease to develop. Fungicide formulation and application were made as described in Example A. Disease assessment was conducted as described in Example A.

Another test relates to Puccinia triticina. The test can be described thus: Wheat brown rust, whole-plant fungicidal activity (PUCCRT). Type of test: in vivo, Puccinia triticina on wheat plants (variety 'Yuma'). The note with it: 24 h, 1DP (1 day protectant), read-out: % Disease Control Rating PUCCRT. Here is the method: Technical grades of materials were dissolved in acetone, which were then mixed with nine volumes of water (H2O) containing 110 ppm Triton X-100. The fungicide solutions were applied onto wheat seedlings using an automated booth sprayer to run-off. All sprayed plants were allowed to air dry prior to further handling. All fungicides were evaluated using the aforementioned method for their activity vs. all target diseases, unless stated otherwise.
Example B: Evaluation of Fungicidal Activity: Wheat Brown Rust (Puccinia triticina; Synonym: Puccinia recondita f sp. tritici; Bayer Code PUCCRT)
Wheat plants (variety ‘Yuma’) were grown from seed in a greenhouse in soil-less potting mix until the first leaf was fully emerged, with 7-10 seedlings per pot. These plants were inoculated with an aqueous spore suspension of Puccinia triticina after fungicide treatments. After inoculation, the plants were kept in a dark dew room with 100% relative humidity overnight to permit spores to germinate and infect the leaf. The plants were then transferred to a greenhouse for disease to develop. Fungicide formulation, application and disease assessment followed the procedures as described in Example A.

Read-outs that look alike come from different tables or passages of the source. Bounds are passed on as bounds.

`CCN(C)/C=N/c1cc(C)c(C(=O)Cc2c(F)cc(F)cc2F)cc1C` [Compound 23]: the pest or weed control at 200 ppm in the test on Zymoseptoria tritici (24 h, 1DP (1 day protectant)) is 20 to 50%; with Zymoseptoria tritici (72 h, 3DC (3 day curative)), below 20%; with Phakopsora pachyrhizi (24 h, 1DP (1 day protectant)), above 85%; in the test on Phakopsora pachyrhizi (72 h, 3DC (3 day curative)) it was above 85%; in the test with Rhynchosporium commune it was above 85%; with Puccinia triticina, above 85%.

As for `CCN(C)/C=N/c1cc(C)c(C(=O)Cc2cccc(C(=O)OC)c2)cc1C` [Compound 24], the pest or weed control at 200 ppm with Zymoseptoria tritici (24 h, 1DP (1 day protectant)) is below 20%; in the test on Zymoseptoria tritici (72 h, 3DC (3 day curative)), below 20%; in the test on Phakopsora pachyrhizi (24 h, 1DP (1 day protectant)), below 20%; in the test with Phakopsora pachyrhizi (72 h, 3DC (3 day curative)), below 20%; with Rhynchosporium commune it was below 20%; in the test on Puccinia triticina, above 85%.

Turning to `CCN(C)/C=N/c1cc(C)c(C(=O)C2CCC2)cc1C` [Compound 25], the pest or weed control at 200 ppm with Zymoseptoria tritici (24 h, 1DP (1 day protectant)) is 20 to 50%; in the test on Zymoseptoria tritici (72 h, 3DC (3 day curative)), below 20%; with Phakopsora pachyrhizi (24 h, 1DP (1 day protectant)), above 85%; in the test on Phakopsora pachyrhizi (72 h, 3DC (3 day curative)), above 85%; in the test on Rhynchosporium commune, above 85%; with Puccinia triticina, above 85%.

Consider `CCN(C)/C=N/c1cc(C)c(C(=O)C2CCCCC2)cc1C` [Compound 26], for which the pest or weed control at 200 ppm in the test on Zymoseptoria tritici (24 h, 1DP (1 day protectant)) is above 85%; in the test on Zymoseptoria tritici (72 h, 3DC (3 day curative)) it was 20 to 50%; in the test with Phakopsora pachyrhizi (24 h, 1DP (1 day protectant)), above 85%; with Phakopsora pachyrhizi (72 h, 3DC (3 day curative)) it was above 85%; in the test with Rhynchosporium commune, above 85%; in the test on Puccinia triticina it was above 85%.

For `CCN(C)/C=N/c1cc(C)c(C(=O)CC2CCC2)cc1C` [Compound 27], the pest or weed control at 200 ppm in the test with Zymoseptoria tritici (24 h, 1DP (1 day protectant)) was above 85%; in the test on Zymoseptoria tritici (72 h, 3DC (3 day curative)), 50 to 85%; with Phakopsora pachyrhizi (24 h, 1DP (1 day protectant)), above 85%; with Phakopsora pachyrhizi (72 h, 3DC (3 day curative)) it was above 85%; in the test with Rhynchosporium commune, above 85%; in the test on Puccinia triticina it was above 85%.

Take `CCN(C)/C=N/c1cc(C)c(C(=O)CCC(F)(F)C(F)(F)F)cc1C` [Compound 29]: the pest or weed control at 200 ppm in the test with Zymoseptoria tritici (24 h, 1DP (1 day protectant)) is 50 to 85%; in the test with Zymoseptoria tritici (72 h, 3DC (3 day curative)), 50 to 85%; with Phakopsora pachyrhizi (24 h, 1DP (1 day protectant)), above 85%; with Phakopsora pachyrhizi (72 h, 3DC (3 day curative)) it was above 85%; with Rhynchosporium commune, above 85%; with Puccinia triticina, above 85%.

In the case of `CCN(C)/C=N/c1cc(F)c(C(=O)CC2CCCC2)cc1C` [Compound 30], the pest or weed control at 200 ppm was below 20% with Zymoseptoria tritici (24 h, 1DP (1 day protectant)); below 20% with Zymoseptoria tritici (72 h, 3DC (3 day curative)); above 85% in the test with Phakopsora pachyrhizi (24 h, 1DP (1 day protectant)); above 85% with Phakopsora pachyrhizi (72 h, 3DC (3 day curative)); below 20% with Rhynchosporium commune; 50 to 85% in the test on Puccinia triticina.

Take `CCN(C)/C=N/c1cc(C)c(C(=O)Cc2cccc(C(=O)OC)c2F)cc1C` [Compound 31]: the pest or weed control at 200 ppm is above 85% in the test on Zymoseptoria tritici (24 h, 1DP (1 day protectant)); below 20% in the test with Zymoseptoria tritici (72 h, 3DC (3 day curative)); below 20% in the test on Phakopsora pachyrhizi (24 h, 1DP (1 day protectant)); below 20% in the test with Phakopsora pachyrhizi (72 h, 3DC (3 day curative)); 50 to 85% with Rhynchosporium commune; above 85% with Puccinia triticina.

As for `CCN(C)/C=N/c1cc(C)c(C(=O)Cc2ccc(Cl)cc2F)cc1C` [Compound 32], the pest or weed control at 200 ppm in the test with Zymoseptoria tritici (24 h, 1DP (1 day protectant)) was above 85%; in the test on Zymoseptoria tritici (72 h, 3DC (3 day curative)), below 20%; in the test with Phakopsora pachyrhizi (24 h, 1DP (1 day protectant)), above 85%; with Phakopsora pachyrhizi (72 h, 3DC (3 day curative)) it was above 85%; with Rhynchosporium commune it was above 85%; in the test on Puccinia triticina, above 85%.

As to `CCN(C)/C=N/c1cc(C)c(C(=O)Cc2ccccc2OC(F)(F)F)cc1C` [Compound 33], the pest or weed control at 200 ppm was above 85% in the test with Zymoseptoria tritici (24 h, 1DP (1 day protectant)); 50 to 85% in the test on Zymoseptoria tritici (72 h, 3DC (3 day curative)); above 85% in the test with Phakopsora pachyrhizi (24 h, 1DP (1 day protectant)); above 85% in the test on Phakopsora pachyrhizi (72 h, 3DC (3 day curative)); above 85% in the test on Rhynchosporium commune; above 85% in the test with Puccinia triticina.

Consider `CCN(C)/C=N/c1cc(C)c(C(=O)Cc2cccc(OC(F)(F)F)c2)cc1C` [Compound 34], for which the pest or weed control at 200 ppm with Zymoseptoria tritici (24 h, 1DP (1 day protectant)) was 50 to 85%; with Zymoseptoria tritici (72 h, 3DC (3 day curative)), below 20%; in the test on Phakopsora pachyrhizi (24 h, 1DP (1 day protectant)), above 85%; with Phakopsora pachyrhizi (72 h, 3DC (3 day curative)), above 85%; in the test with Rhynchosporium commune, above 85%; with Puccinia triticina, above 85%.

As to `CCN(C)/C=N/c1cc(OC)c(C(=O)CC2CCCC2)cc1C` [Compound 35], the pest or weed control at 200 ppm is 50 to 85% with Zymoseptoria tritici (24 h, 1DP (1 day protectant)); below 20% with Zymoseptoria tritici (72 h, 3DC (3 day curative)); above 85% in the test on Phakopsora pachyrhizi (24 h, 1DP (1 day protectant)); above 85% in the test with Phakopsora pachyrhizi (72 h, 3DC (3 day curative)); above 85% in the test on Rhynchosporium commune; above 85% in the test with Puccinia triticina.

Regarding `CCN(C)/C=N/c1cc(C)c(C(=O)Cc2cccc(C(F)(F)F)c2F)cc1C` [Compound 36], the pest or weed control at 200 ppm in the test with Zymoseptoria tritici (72 h, 3DC (3 day curative)) was below 20%; in the test with Phakopsora pachyrhizi (24 h, 1DP (1 day protectant)), above 85%; with Phakopsora pachyrhizi (72 h, 3DC (3 day curative)), above 85%; with Rhynchosporium commune, 50 to 85%; with Puccinia triticina, above 85%.

In the case of `CCN(C)/C=N/c1cc(OC)c(C(=O)Cc2c(F)cc(F)cc2F)cc1C` [Compound 37], the pest or weed control at 200 ppm in the test on Zymoseptoria tritici (24 h, 1DP (1 day protectant)) is above 85%; with Zymoseptoria tritici (72 h, 3DC (3 day curative)) it was 50 to 85%; in the test on Phakopsora pachyrhizi (24 h, 1DP (1 day protectant)), above 85%; in the test with Phakopsora pachyrhizi (72 h, 3DC (3 day curative)), above 85%; in the test with Rhynchosporium commune it was below 20%; in the test with Puccinia triticina, above 85%.

As for `Cc1cc(C(=O)CC2CCCCC2)c(C)cc1/N=C/N(C)CC(F)(F)F` [Compound 38], the pest or weed control at 200 ppm is below 20% in the test on Zymoseptoria tritici (24 h, 1DP (1 day protectant)); below 20% in the test on Zymoseptoria tritici (72 h, 3DC (3 day curative)); below 20% in the test with Phakopsora pachyrhizi (24 h, 1DP (1 day protectant)); below 20% in the test with Phakopsora pachyrhizi (72 h, 3DC (3 day curative)); below 20% in the test on Rhynchosporium commune; below 20% in the test on Puccinia triticina.

Consider `C=CCN(C)/C(S)=N/c1cc(C)c(C(=O)CC2CCCCC2)cc1C` [Compound 45], for which the pest or weed control at 200 ppm with Zymoseptoria tritici (24 h, 1DP (1 day protectant)) was below 20%; with Zymoseptoria tritici (72 h, 3DC (3 day curative)), below 20%; in the test on Phakopsora pachyrhizi (24 h, 1DP (1 day protectant)), 20 to 50%; with Phakopsora pachyrhizi (72 h, 3DC (3 day curative)), 50 to 85%; with Rhynchosporium commune, below 20%; in the test on Puccinia triticina, above 85%.

On to `Cc1cc(C(=O)CC2CCCCC2)c(C)cc1/N=C(\S)N(C)CC(F)(F)F` [Compound 46], for which the pest or weed control at 200 ppm with Zymoseptoria tritici (24 h, 1DP (1 day protectant)) is below 20%; in the test with Zymoseptoria tritici (72 h, 3DC (3 day curative)) it was below 20%; in the test on Phakopsora pachyrhizi (24 h, 1DP (1 day protectant)) it was 20 to 50%; with Phakopsora pachyrhizi (72 h, 3DC (3 day curative)) it was below 20%; in the test with Rhynchosporium commune it was below 20%; with Puccinia triticina it was below 20%.

For the molecule `Cc1cc(C(=O)CC2CCCCC2)c(C)cc1/N=C(\S)N(C)C(C)C` [Compound 47], the pest or weed control at 200 ppm in the test on Zymoseptoria tritici (24 h, 1DP (1 day protectant)) is above 85%; in the test with Zymoseptoria tritici (72 h, 3DC (3 day curative)) it was below 20%; in the test on Phakopsora pachyrhizi (24 h, 1DP (1 day protectant)), above 85%; in the test with Phakopsora pachyrhizi (72 h, 3DC (3 day curative)), above 85%; with Rhynchosporium commune, 20 to 50%; with Puccinia triticina it was above 85%.
